# Results taken from US20060069132A1, “Azolecarboxamide herbicides” (priority 2004, published 2006).
# What was measured:
# pigweed = assay: Test B pre-/postemergence herbicide test; assay type: in vivo, Amaranthus retroflexus; settings: for Plant response rating (0 to 100 scale), Pigweed: 0 is no effect
# How it was run: (§1)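 Greenhouse pot assay with simultaneous preemergence (treated seed) and postemergence (2–18 cm seedlings) applications of surfactant-containing, non-phytotoxic solvent formulations. Response scored visually 13–15 days later on a 0–100 scale, 100 meaning complete control.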
# rice = assay: Test B flooded paddy test; assay type: in vivo, Oryza sativa; settings: 1000 g ai/ha, scale 0 to 100 (0 no effect, 100 complete control)
# How it was run: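 Greenhouse test; postemergence application to plants at 1–4 leaves (2–18 cm); paddy species at 2 leaves; evaluated visually vs controls at 13–15 days; scale 0–100 (100 = complete control).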
# large crabgrass = assay: Test B pre-/postemergence herbicide test; assay type: in vivo, Digitaria sanguinalis; settings: for Plant response rating (0 to 100 scale), Crabgrass, Large: 0 is no effect
# How it was run: as §1
# corn = assay: Test B pre-/postemergence herbicide test; assay type: in vivo, Zea mays; settings: for Plant response rating (0 to 100 scale), Corn: 0 is no effect
# How it was run: as §1
# giant foxtail = assay: Test B pre-/postemergence herbicide test; assay type: in vivo, Setaria faberi; settings: for Plant response rating (0 to 100 scale), Foxtail, Giant: 0 is no effect
# How it was run: as §1
# barnyardgrass [1] = assay: Test B flooded paddy test; assay type: in vivo, Echinochloa crus-galli; settings: 1000 g ai/ha, scale 0 to 100 (0 no effect, 100 complete control)
# How it was run: (§2)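 Paddy species grown to the 2-leaf stage under flooding; blackgrass sprayed postemergence at 2–18 cm (1- to 4-leaf stage). Plants kept in a greenhouse for 13 to 15 days, then visually rated against controls on 0 (no effect) to 100 (complete control).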
# wheat = assay: Test B postemergence herbicide test; assay type: in vivo, Triticum aestivum; set-up: key to Wheat plant response rating: 0 = no effect, 100 = complete control
# How it was run: (§3)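 Read-out: visual comparison with controls, scored 0 to 100, where 100 means complete control and 0 no effect. Formulated chemicals were applied postemergence to plants 2–18 cm tall (1- to 4-leaf), or to flooded-paddy plants at the 2-leaf stage, then held 13 to 15 days under glass.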
# lambsquarters = assay: Test B pre-/postemergence herbicide test; assay type: in vivo, Chenopodium album; settings: for Plant response rating (0 to 100 scale), Lambsquarters: 0 is no effect
# How it was run: as §1
# wild oat = assay: Test B postemergence herbicide test; assay type: in vivo, Avena fatua
# How it was run: as §3
# Surinam grass = assay: Test B pre-/postemergence herbicide test; assay type: in vivo, Urochloa decumbens; settings: for Plant response rating (0 to 100 scale), Surinam Grass: 0 is no effect
# How it was run: as §1
# ducksalad = assay: Test B flooded paddy test; assay type: in vivo, Heteranthera limosa; settings: 1000 g ai/ha, scale 0 to 100 (0 no effect, 100 complete control)
# How it was run: as §2
# [2] = system: small flower umbrella sedge; assay: Test B flooded paddy test; assay type: in vivo, Cyperus difformis; settings: 1000 g ai/ha, scale 0 to 100 (0 no effect, 100 complete control)
# How it was run: as §2
# barnyardgrass [3] = assay: Test B pre-/postemergence herbicide test; assay type: in vivo, Echinochloa crus-galli; settings: for Plant response rating (0 to 100 scale), Barnyardgrass: 0 is no effect
# How it was run: (§4)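 Test chemicals in a non-phytotoxic solvent mixture with surfactant were applied preemergence to seeded species and postemergence to plants 2-18 cm tall (1- to 4-leaf stage); rice and barnyardgrass were also tested in a flooded paddy at the 2-leaf stage. Visual rating versus controls after 13-15 days in greenhouse, scale 0 (no effect) to 100 (complete control).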
# blackgrass = assay: Test B postemergence herbicide test; assay type: in vivo, Alopecurus myosuroides
# How it was run: as §2
# velvetleaf = assay: Test B pre-/postemergence herbicide test; assay type: in vivo, Abutilon theophrasti; settings: for Plant response rating (0 to 100 scale), Velvetleaf: 0 is no effect, preemergence
# How it was run: as §1
# cocklebur = assay: Test B pre-/postemergence herbicide test; assay type: in vivo, Xanthium strumarium; settings: for Plant response rating (0 to 100 scale), Cocklebur: 0 is no effect
# How it was run: as §4
# morningglory = assay: Test B pre-/postemergence herbicide test; assay type: in vivo, Ipomoea coccinea; settings: for Plant response rating (0 to 100 scale), Morningglory: 0 is no effect
# How it was run: as §4
# [4] = 125 g ai/ha, 100 is complete control, preemergence
# [5] = 125 g ai/ha, visual rating, scale 0 (no effect) to 100 (complete control), postemergence
# [6] = 500 g ai/ha, visual rating, 0 = no effect, 100 = complete control, preemergence
# [7] = postemergence, 500 g ai/ha, scale 0 to 100, 0 is no effect, 100 is complete control
# [8] = 125 g ai/ha, 100 is complete control
# [9] = Postemergence, 500 g ai/ha, scale 0 (no effect) to 100 (complete control)
# [10] = postemergence, 125 g ai/ha, scale 0 to 100
smiles,measurement,setting,value
CCNC(=O)c1ccc(F)c(NC(=O)c2cn(C(C)(C)C)nc2C)c1 [Compound 345],"Plant response rating (0 to 100 scale), Pigweed",pigweed; [4],60
same,Pigweed plant response rating,pigweed; [5],20
same,"Plant response rating, Pigweed",pigweed; [6],100
same,Pigweed plant response rating,pigweed; [7],20
same,Rice plant response rating,rice,40
same,"Plant response rating (0 to 100 scale), Crabgrass, Large",large crabgrass; [4],30
same,"Crabgrass, Large plant response rating",large crabgrass; [5],0
same,"Plant response rating, Crabgrass, Large",large crabgrass; [6],90
same,"Crabgrass, Large plant response rating",large crabgrass; [7],0
same,"Plant response rating (0 to 100 scale), Corn",corn; [4],0
same,Corn plant response rating,corn; [5],0
same,"Plant response rating, Corn",corn; [6],10
same,Corn plant response rating,corn; [7],0
same,"Plant response rating (0 to 100 scale), Foxtail, Giant",giant foxtail; [4],10
same,"Foxtail, Giant plant response rating",giant foxtail; [5],0
same,"Plant response rating, Foxtail, Giant",giant foxtail; [6],30
same,"Foxtail, Giant plant response rating",giant foxtail; [7],0
same,Barnyardgrass plant response rating,barnyardgrass [1],30
same,Wheat plant response rating,wheat; [5],0
same,Wheat plant response rating,wheat; [7],0
same,"Plant response rating (0 to 100 scale), Lambsquarters",lambsquarters; [4],70
same,Lambsquarters plant response rating,lambsquarters; [5],20
same,"Plant response rating, Lambsquarters",lambsquarters; [6],100
same,Lambsquarters plant response rating,lambsquarters; [7],20
same,"Oat, Wild plant response rating",wild oat; [5],0
same,"Oat, Wild plant response rating",wild oat; [7],10
same,"Plant response rating (0 to 100 scale), Surinam Grass",Surinam grass; [4],20
same,Surinam Grass plant response rating,Surinam grass; [5],0
same,"Plant response rating, Surinam Grass",Surinam grass; [6],70
same,Surinam Grass plant response rating,Surinam grass; [7],0
same,Ducksalad plant response rating,ducksalad,70
same,"Sedge, Umbrella plant response rating",[2],80
same,"Plant response rating (0 to 100 scale), Barnyardgrass",barnyardgrass [3]; [4],20
same,Barnyardgrass plant response rating,barnyardgrass [3]; [5],0
same,"Plant response rating, Barnyardgrass",barnyardgrass [3]; [6],30
same,Barnyardgrass plant response rating,barnyardgrass [3]; [7],0
same,Blackgrass plant response rating,blackgrass; [5],0
same,Blackgrass plant response rating,blackgrass; [7],0
same,"Plant response rating (0 to 100 scale), Velvetleaf",velvetleaf; [8],30
same,Velvetleaf plant response rating,velvetleaf; [5],10
same,Velvetleaf plant response rating,velvetleaf; [7],10
same,"Plant response rating (0 to 100 scale), Cocklebur",cocklebur; [4],0
same,Cocklebur plant response rating,cocklebur; [5],0
same,"Plant response rating, Cocklebur",cocklebur; [6],10
same,Cocklebur plant response rating,cocklebur; [7],0
same,"Plant response rating (0 to 100 scale), Morningglory",morningglory; [4],20
same,Morningglory plant response rating,morningglory; [5],10
same,"Plant response rating, Morningglory",morningglory; [6],50
same,Morningglory plant response rating,morningglory; [7],10
CCOC(=O)c1cncc(NC(=O)c2nn(C(C)(C)C)nc2C)c1 [Compound 422],"Plant response rating (0 to 100 scale), Pigweed",pigweed; [4],0
same,Pigweed plant response rating,pigweed; [9],0
same,Pigweed plant response rating,pigweed; [10],0
same,Rice plant response rating,rice,30
same,"Plant response rating (0 to 100 scale), Crabgrass, Large",large crabgrass; [4],0
same,"Crabgrass, Large plant response rating",large crabgrass; [9],0
same,"Crabgrass, Large plant response rating",large crabgrass; [10],0
same,"Plant response rating (0 to 100 scale), Corn",corn; [4],0
same,Corn plant response rating,corn; [9],0
same,Corn plant response rating,corn; [10],0
same,"Plant response rating (0 to 100 scale), Foxtail, Giant",giant foxtail; [4],0
same,"Foxtail, Giant plant response rating",giant foxtail; [9],0
same,"Foxtail, Giant plant response rating",giant foxtail; [10],0
same,Barnyardgrass plant response rating,barnyardgrass [1],30
same,Wheat plant response rating,"wheat; 500 g ai/ha, scale 0 to 100, 0 no effect, 100 complete control, preemergence",0
same,Wheat plant response rating,wheat; [9],0
same,Wheat plant response rating,wheat; [10],0
same,"Plant response rating (0 to 100 scale), Lambsquarters",lambsquarters; [4],0
same,Lambsquarters plant response rating,lambsquarters; [9],0
same,Lambsquarters plant response rating,lambsquarters; [10],0
same,"Oat, Wild plant response rating",wild oat; [9],0
same,"Oat, Wild plant response rating",wild oat; [10],0
same,"Plant response rating (0 to 100 scale), Surinam Grass",Surinam grass; [4],0
same,Surinam Grass plant response rating,Surinam grass; [9],0
same,Surinam Grass plant response rating,Surinam grass; [10],0
same,Ducksalad plant response rating,ducksalad,20
same,"Sedge, Umbrella plant response rating",[2],70
same,"Plant response rating (0 to 100 scale), Barnyardgrass",barnyardgrass [3]; [4],0
same,Barnyardgrass plant response rating,"barnyardgrass [3]; Postemergence, 125 g ai/ha, scale 0 (no effect) to 100 (complete control)",0
same,Barnyardgrass plant response rating,barnyardgrass [3]; [9],0
same,Blackgrass plant response rating,blackgrass; [9],20
same,Blackgrass plant response rating,blackgrass; [10],20
same,"Plant response rating (0 to 100 scale), Velvetleaf",velvetleaf; [8],0
same,Velvetleaf plant response rating,velvetleaf; [9],0
same,Velvetleaf plant response rating,velvetleaf; [10],0
same,"Plant response rating (0 to 100 scale), Cocklebur",cocklebur; [4],0
same,Cocklebur plant response rating,cocklebur; [9],0
same,Cocklebur plant response rating,cocklebur; [10],0
same,"Plant response rating (0 to 100 scale), Morningglory",morningglory; [4],0
same,Morningglory plant response rating,morningglory; [9],0
same,Morningglory plant response rating,morningglory; [10],0
